Results reported in patent publication US9403831B2, “Triazolopyrazine derivative and use thereof” (KOREA RESEARCH INSTITUTE OF CHEMICAL TECHNOLOGY, priority 2013, dated 2016).
pIC50: −log10 of the molar value. Structures can show the parent of a compound that is named as a salt.

Columns and labels:
[1] = test system: gastric cancer cell line Hs746T; experiment: Cancer cell proliferation inhibitory test (SRB or MTS assay, 72 hours); type: cell-based; conditions: Homo sapiens, cancer cell (Hs746T) proliferation inhibition, culturing with compound for 72 hours
Procedure: The drug used in the test was diluted to a desired concentration as a test medium, and the final concentration of dimethyl sulfoxide was 0.5% or less.
All the cancer cell lines used in the test originated from the human body, and gastric cancer cell lines Hs746T and MKN-45 were used.
5×10^3 cells of Hs746T were dispensed to each well of the 96-well flat bottom micro-plate. MKN-45 was dispensed at 1×10^4 cells. The cells were cultured for 24 hours, so that the cells adhered to the bottom, and then the culture liquid was removed. The culture liquid containing each of the compounds of the present invention was added, followed by culturing for 72 hours. After the culturing with the compound was completed, the cytotoxicity was measured using protein stain reagent SRB or MTS assay.
Specifically, after the culturing with the compound of the present invention was completed, the cultured liquid was removed. Each well was treated with a cool TCA solution, and allowed to stand at 4° C. for 1 hour to fix cells. The TCA solution was removed, followed by drying at room temperature, and then a stain solution containing 0.4% SRB dissolved in 1% acetic acid solution was added, and then the mixture was allowed to stand for 30 minutes to stain cells. […] The absorbance of each well was measured at a wavelength range of 520 nm using an Eliza reader (micro-plate reader).
The drug cytotoxicity was measured from the OD values for the well added without the drug (C), each well added with the drug (T), and the well initially added with the drug (Tz): [(T−Tz)/(C−Tz)]×100 for […]; or [(T−Tz)/(Tz)]×100 for Tz>T.
The cancer cell inhibitory activity measurement using MTS assay was conducted as follows. Specifically, after the culturing with the compound of the present invention was completed, the PMS solution and MTS solution constituting the CellTiter 96® AQueous Non-Radioactive Cell Proliferation Assay product from Promega Co. were mixed, and 20 μL was put into each well. After the cells were placed in an incubator for 4 hours, and then taken out and allowed to stand at room temperature for 10 minutes.

c-Met enzyme = c-Met enzyme (Homo sapiens (Human), UniProt P08581); experiment: c-Met kinase inhibitory activity (DELFIA time-resolved fluorescence); type: biochemical; conditions: c-Met kinase activity reduced to 50%
Procedure: The c-Met kinase inhibitory activity was analyzed using dissociation enhanced lanthanide fluoro-immunoassay (DELFIA, Perkin Elmer), which is a kind of time-resolved fluorescence (TRF). […] of the compound prepared in the present invention, as a test compound, was put in a Greiner 96-well V-shaped bottom plate, and a tyrosin kinase buffer ([…]) mixed with a c-Met enzyme was added thereto, and then the enzyme and the test compound were stirred for 15 minutes, followed by culturing. An ATP solution ([…]) was added thereto to proceed with a kinase reaction at room temperature for 30 minutes, and then a 50 mM […] solution (EDTA, […]) was added to stop the reaction. After that, the reaction mixture was transferred to a plate coated with Streptavidin, followed by culturing under shaking. After 2 hours, the cultured material was washed three times with a PBS-T buffer (PBS 0.05% Tween 20).
The europium-labeled anti-phosphotyrosine antibody was diluted to 1:[…] of the diluent was added per well, followed by culturing under shaking. After 1 hour, the cultured material was washed three times with a PBS-T buffer (PBS 0.05% Tween 20).

Chain of c-Met enzyme (P08581 25-1390): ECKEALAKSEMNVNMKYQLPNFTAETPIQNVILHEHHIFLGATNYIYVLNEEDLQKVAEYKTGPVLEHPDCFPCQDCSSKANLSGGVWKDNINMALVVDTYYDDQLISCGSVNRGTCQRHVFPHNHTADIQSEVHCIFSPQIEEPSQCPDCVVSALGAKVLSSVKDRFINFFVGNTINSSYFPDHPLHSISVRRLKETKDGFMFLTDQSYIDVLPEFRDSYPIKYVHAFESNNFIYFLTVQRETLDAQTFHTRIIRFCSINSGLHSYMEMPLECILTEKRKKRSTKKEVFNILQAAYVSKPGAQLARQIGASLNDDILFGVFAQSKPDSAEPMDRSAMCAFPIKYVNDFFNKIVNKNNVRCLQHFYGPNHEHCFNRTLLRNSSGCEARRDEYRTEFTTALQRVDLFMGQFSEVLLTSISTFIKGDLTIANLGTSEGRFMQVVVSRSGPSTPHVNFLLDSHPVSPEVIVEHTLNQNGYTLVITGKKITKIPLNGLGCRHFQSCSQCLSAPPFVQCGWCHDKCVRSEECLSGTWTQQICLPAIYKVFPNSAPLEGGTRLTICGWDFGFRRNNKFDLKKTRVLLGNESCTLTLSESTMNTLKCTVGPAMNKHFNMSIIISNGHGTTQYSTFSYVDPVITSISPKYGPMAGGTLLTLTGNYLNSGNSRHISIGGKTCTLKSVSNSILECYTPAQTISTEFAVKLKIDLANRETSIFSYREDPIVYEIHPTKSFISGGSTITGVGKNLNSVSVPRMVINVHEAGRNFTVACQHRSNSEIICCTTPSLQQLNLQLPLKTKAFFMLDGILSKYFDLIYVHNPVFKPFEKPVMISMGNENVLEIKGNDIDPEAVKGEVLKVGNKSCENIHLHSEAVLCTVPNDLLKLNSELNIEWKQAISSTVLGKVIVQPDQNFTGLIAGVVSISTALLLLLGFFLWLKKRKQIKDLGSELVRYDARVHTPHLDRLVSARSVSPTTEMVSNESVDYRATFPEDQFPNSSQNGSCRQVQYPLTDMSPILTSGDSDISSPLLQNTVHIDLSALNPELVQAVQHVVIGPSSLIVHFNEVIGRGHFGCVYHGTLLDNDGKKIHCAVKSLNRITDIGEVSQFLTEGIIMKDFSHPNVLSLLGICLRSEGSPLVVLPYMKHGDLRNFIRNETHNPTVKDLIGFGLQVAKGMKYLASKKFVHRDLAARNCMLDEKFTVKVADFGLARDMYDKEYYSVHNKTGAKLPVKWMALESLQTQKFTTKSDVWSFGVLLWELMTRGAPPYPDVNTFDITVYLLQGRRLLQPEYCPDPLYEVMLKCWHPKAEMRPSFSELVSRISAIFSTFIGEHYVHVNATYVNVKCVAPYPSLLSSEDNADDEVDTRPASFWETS

| Compound | pIC50 [1] | pIC50 (c-Met enzyme) |
| --- | --- | --- |
| N#Cc1cccc(-c2cnc3nnn(C[C@@H]4CN(c5ncc(-c6cnn(CCO)c6)cn5)CCO4)c3n2)c1 [Chemical formula 31, (S)-3-(1-((4-(5-(1-(2-hydroxyethyl)-1H-pyrazol-4-yl)pyrimidin-2-yl)morpholin-2-yl)methyl)-1H-[1,2,3]triazolo[4,5-b]pyrazin-6-yl)benzonitrile] | 9.74 | 8.70 |
| Cn1cc(-c2cnc3nnn(C[C@@H]4CN(c5ncc(-c6ccc(CN7CCOCC7)cc6)cn5)CCO4)c3n2)cn1 [Chemical formula 18, (S)-2-((6-(1-methyl-1H-pyrazol-4-yl)-1H-[1,2,3]triazolo[4,5-b]pyrazin-1-yl)methyl)-4-(5-(4-(morpholinomethyl)phenyl)pyrimidin-2-yl)morpholine] | 8.02 | 8.30 |
| Cn1cc(-c2cnc3nnn(CC4CCCN(c5ncc(C6=CCNCC6)cn5)C4)c3n2)cn1 (stereo not drawn) [Chemical formula 33, 6-(1-methyl-1H-pyrazol-4-yl)-1-((1-(5-(1,2,3,6-tetrahydropyridin-4-yl)pyrimidin-2-yl)piperidin-3-yl)methyl)-1H-[1,2,3]triazolo[4,5-b]pyrazinehydrochloride] | 8.02 | 8.52 |
| N#Cc1cc(-c2cnc3nnn(C[C@@H]4CN(c5ncc(-c6cnn(CCO)c6)cn5)CCO4)c3n2)ccc1F [Chemical formula 32, (S)-2-fluoro-5-(1-((4-(5-(1-(2-hydroxyethyl)-1H-pyrazol-4-yl)pyrimidin-2-yl)morpholine-2-yl)methyl)-1H-[1,2,3]triazolo[4,5-b]pyrazin-6-yl)benzonitrile] | 9.85 | 9.00 |

More lines, in order of rising pIC50 [1], values ahead:

| pIC50 [1] | pIC50 (c-Met enzyme) | Compound |
| --- | --- | --- |
| 8.39 | 7.85 | Cn1cc(-c2cnc3nnn(C[C@@H]4CN(c5ncc(-c6ccc(OCCN7CCOCC7)cc6)cn5)CCO4)c3n2)cn1 [Chemical formula 14, (S)-2-((6-(1-methyl-1H-pyrazol-4-yl)-1H-[1,2,3]triazolo[4,5-b]pyrazin-1-yl)methyl)-4-(5-(4-(2-morpholinoethoxy)phenyl)pyrimidin-2-yl)morpholine] |
| 9.02 | 8.40 | Cn1cc(-c2cnc3nnn(C[C@@H]4CN(c5ncc(C6=CCN(CCO)CC6)cn5)CCO4)c3n2)cn1 [Chemical formula 12, (S)-2-(4-(2-(2-((6-(1-methyl-1H-pyrazol-4-yl)-1H-[1,2,3]triazolo[4,5-b]pyrazin-1-yl)methyl)morpholino)pyrimidin-5-yl)-5,6-dihydropyridin-1(2H)-yl)ethanol] |
| 9.07 | 7.82 | Cn1cc(-c2cnc3nnn(C[C@@H]4CN(c5ncc(-c6ccc(OCCN7CCOCC7)c(F)c6)cn5)CCO4)c3n2)cn1 [Chemical formula 13, (S)-4-(5-(3-fluoro-4-(2-morpholinoethoxy)phenyl)pyrimidin-2-yl)-2-((6-(1-methyl-1H-pyrazol-4-yl)-1H-[1,2,3]triazolo[4,5-b]pyrazin-1-yl)methyl)morpholine] |
| 9.85 | 8.40 | Cn1cc(-c2cnc3nnn(C[C@@H]4CN(c5ncc(-c6cnn(C7CCN(CCO)CC7)c6)cn5)CCO4)c3n2)cn1 [Chemical formula 8, (S)-2-(4-(4-(2-(2-((6-(1-methyl-1H-pyrazol-4-yl)-1H-[1,2,3]triazolo[4,5-b]pyrazin-1-yl)methyl)morpholino)pyrimidin-5-yl)-1H-pyrazol-1-yl)piperidin-1-yl)ethanol] |
| 9.96 | 8.22 | CN1CCC(n2cc(-c3cnc(N4CCO[C@H](Cn5nnc6ncc(-c7cnn(C)c7)nc65)C4)nc3)cn2)CC1 [Chemical formula 7, (S)-2-((6-(1-methyl-1H-pyrazol-4-yl)-1H-[1,2,3]triazolo[4,5-b]pyrazin-1-yl)methyl)-4-(5-(1-(1-methylpiperidin-4-yl)-1H-pyrazol-4-yl)pyrimidin-2-yl)morpholine] |
